# Experimental data: US20230002336A1, “MrgprX2 Antagonists and Uses Thereof” (Dermira, Inc., priority 2019, published 2023)
# Target: T1, Human MrgprX2 (Homo sapiens, UniProt Q96LB1)
# T1 construct: expressed in transfected cells; host or cells: recombinant cells
# T1 sequence (Q96LB1 1-330): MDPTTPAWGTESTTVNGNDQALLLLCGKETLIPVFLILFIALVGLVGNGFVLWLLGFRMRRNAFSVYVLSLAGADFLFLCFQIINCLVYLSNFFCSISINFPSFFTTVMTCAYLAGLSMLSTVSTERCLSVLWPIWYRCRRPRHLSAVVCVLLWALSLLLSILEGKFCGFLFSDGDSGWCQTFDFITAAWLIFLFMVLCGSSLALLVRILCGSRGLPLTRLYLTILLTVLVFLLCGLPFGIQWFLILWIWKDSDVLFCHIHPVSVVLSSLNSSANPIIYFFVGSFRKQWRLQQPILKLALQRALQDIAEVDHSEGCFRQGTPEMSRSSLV
# Assay: FLIPR intracellular calcium mobilization antagonist assay in recombinant hMrgpMRGPRX2 expressing cells
# Format: cell-based
# Conditions: antagonist activity, read-out: Human MrgprX2 Antagonist pIC50 (converted)
# Excerpt: [Worded in the source for another species; this species is reported under the same test.] The assays used to determine potencies are functional read-out looking at intracellular calcium mobilization using the FLIPR™ technology. In these FLIPR assays, we test the identified compounds using recombinant cellular systems expressing mouse MrgprB2, mouse MrgprA1, gerbil MrgpMRGPRX2 orthologue, Chinese hamster MrgpMRGPRX2 orthologue and cynomolgus monkey MrgpMRGPRX2 orthologue, respectively for orthologue activity.
row,SMILES,IC50
1,CCN(C[C@@H](O)C(F)(F)F)C(=O)Nc1nnc(Cc2cccc(Cl)c2)s1 [Example E37],158 nM
2,Cc1cc(F)cc(Cc2nnc(NC(=O)N(C)C[C@@](C)(O)C(F)(F)F)s2)c1 [Example E57],85.1 nM
3,CN(C[C@@](C)(O)C(F)(F)F)C(=O)Nc1nnc(Cc2cc(F)cc(F)c2)s1 [Example E55],10 nM
4,"CN(C[C@](C)(O)C(F)(F)F)C(=O)Nc1nnc(Cc2cc(F)cc(F)c2)s1 [Example E54, 3-[5-[(3,5-difluorophenyl)methyl]-1,3,4-thiadiazol-2-yl]-1-methyl-1-[(2S)-3,3,3-trifluoro-2-hydroxy-2-methyl-propyl]urea]",126 nM
5,"CCN(C[C@H](C)O)C(=O)Nc1nnc(Cc2cccc(F)c2F)s1 [Example E09, 3-[5-[(2,3-difluorophenyl)methyl]-1,3,4-thiadiazol-2-yl]-1-ethyl-1-[(2S)-2-hydroxypropyl]urea]",1580 nM
6,CN(CC(C)(O)C(F)(F)F)C(=O)Nc1nnc(Cc2cc(F)cc(F)c2)s1 (stereo not drawn) [Example E33],15.8 nM
7,CC(CO)N(C)C(=O)Nc1nnc(Cc2cc(F)cc(F)c2)s1 (stereo not drawn) [Example E17],3980 nM
8,"CC(C)NC(=O)c1nnc(Cc2cc(F)cc(F)c2)s1 [Example E58, 5-[(3,5-difluorophenyl)methyl]-N-isopropyl-1,3,4-thiadiazole-2-carboxamide]",3160 nM
9,C[C@H](O)CN(C)C(=O)Nc1nnc(Cc2cc(F)cc(F)c2)s1 [Example E14],2510 nM
10,CCN(CC(C)(C)O)C(=O)Nc1nnc(Cc2cc(C)cc(F)c2)s1 [Example E46],372 nM
11,CCN(C[C@H](C)O)C(=O)Nc1nnc(Cc2cc(C)cc(F)c2)s1 [Example E22],794 nM
12,CN(CC1CCOC1)C(=O)Nc1nnc(Cc2cc(F)cc(F)c2)s1 (stereo not drawn) [Example E27],6310 nM
13,CCN(C[C@H](C)O)C(=O)Nc1nnc(Cc2ccc(F)c(F)c2)s1 [Example E13],2000 nM
14,"CCN(CC(C)(O)C(F)(F)F)C(=O)Nc1nnc(Cc2cccc(F)c2)s1 (stereo not drawn) [Example E42, 1-ethyl-3-[5-[(3-fluorophenyl)methyl]-1,3,4-thiadiazol-2-yl]-1-(3,3,3-trifluoro-2-hydroxy-2-methyl-propyl)urea]",47.9 nM
15,"CN(CC(C)(O)C(F)(F)F)C(=O)Nc1nnc(Cc2cccc(F)c2)s1 (stereo not drawn) [Example E40, 3-[5-[(3-fluorophenyl)methyl]-1,3,4-thiadiazol-2-yl]-1-methyl-1-(3,3,3-trifluoro-2-hydroxy-2-methyl-propyl)urea]",316 nM
16,CN(C[C@@H](O)C(F)(F)F)C(=O)Nc1nnc(Cc2cc(F)cc(Cl)c2)s1 [Example E47],135 nM
17,CCN(CC(C)(C)O)C(=O)Nc1nnc(Cc2cccc(F)c2)s1 [Example E39],724 nM
18,CCN(C[C@@H](O)C(F)(F)F)C(=O)Nc1nnc(Cc2cc(F)cc(F)c2)s1 [Example E23],7.94 nM
19,CCN(C[C@H](C)O)C(=O)Nc1nnc(Cc2cccc(F)c2)s1 [Example E11],3160 nM

row,SMILES,IC50
1,CC1(C(=O)Nc2nnc(Cc3cc(F)cc(F)c3)s2)CCOCC1 [Example E07],1000 nM
2,O=C(Nc1nnc(Cc2cc(F)cc(F)c2)s1)N1CC[C@H](O)C1 [Example E28],5010 nM
3,CCN(C[C@H](C)O)C(=O)Nc1nnc(Cc2cc(Cl)ccc2F)s1 [Example E34],3980 nM
4,CCN(CC(C)(C)O)C(=O)Nc1nnc(Cc2cc(F)cc(F)c2)s1 [Example E38],39.8 nM
5,"CC(C)C(=O)Nc1nnc(Cc2cccc(F)c2)s1 [Example E01, N-[5-[(3-fluorophenyl)methyl]-1,3,4-thiadiazol-2-yl]-2-methyl-propanamide]",2510 nM
6,CN(C[C@@](C)(O)C(F)(F)F)C(=O)Nc1nnc(Cc2cc(F)cc(Cl)c2)s1 [Example E56],16.2 nM
7,O=C(Nc1nnc(Cc2cc(F)cc(F)c2)s1)N1CCC(C(F)(F)F)C1 (stereo not drawn) [Example E29],631 nM
8,CCN(CC1(O)CC1)C(=O)Nc1nnc(Cc2cc(F)cc(F)c2)s1 [Example E30],79.4 nM
9,CC(C)C(=O)Nc1nnc(Cc2cccc(F)c2F)s1 [Example E04],1260 nM
10,CCN(C[C@@H](O)C(F)(F)F)C(=O)Nc1nnc(Cc2cc(F)cc(Cl)c2)s1 [Example E48],14.1 nM
11,CCN(CC(C)(C)O)C(=O)Nc1nnc(Cc2cc(F)cc(Cl)c2)s1 [Example E41],16.6 nM
12,CC(C)C(=O)Nc1nnc(Cc2ccc(F)cc2)s1 [Example E02],7940 nM
13,CCN(C[C@H](C)O)C(=O)Nc1nnc(Cc2ccc(F)c(Cl)c2)s1 [Example E35],794 nM
14,O=C(Nc1nnc(Cc2cc(F)cc(F)c2)s1)N1CCCC1 [Example E25],7940 nM
15,CCN(C[C@H](C)O)C(=O)Nc1nnc(Cc2cc(F)cc(F)c2)s1 [Example E10],251 nM
16,CCN(C[C@H](C)O)C(=O)Nc1nnc(Cc2cc(Cl)cc(Cl)c2)s1 [Example E32],158 nM
17,CN(C[C@@H](O)C(F)(F)F)C(=O)Nc1nnc(Cc2cc(Cl)cc(Cl)c2)s1 [Example E45],288 nM
18,"CCN(C[C@H](C)O)C(=O)Nc1nnc(C(C)(C)c2cc(F)cc(F)c2)s1 [Example E59, 3-[5-[1-(3,5-difluorophenyl)-1-methyl-ethyl]-1,3,4-thiadiazol-2-yl]-1-ethyl-1-[(2S)-2-hydroxypropyl]urea]",2510 nM
19,"CCN(CC(C)(O)C(F)(F)F)C(=O)Nc1nnc(Cc2cccc(F)c2)s1 (single isomer, unassigned) [Example E52, 1-ethyl-3-[5-[(3-fluorophenyl)methyl]-1,3,4-thiadiazol-2-yl]-1-(3,3,3-trifluoro-2-hydroxy-2-methyl-propyl)urea]",50.1 nM

row,SMILES,IC50
1,CCN(C[C@@H](O)C(F)(F)F)C(=O)Nc1nnc(Cc2cc(Cl)cc(Cl)c2)s1 [Example E49],38 nM
2,CC(C)C(=O)Nc1nnc(Cc2cc(F)cc(F)c2)s1 [Example E03],251 nM
3,"CCN(CC(C)(O)C(F)(F)F)C(=O)Nc1nnc(Cc2cccc(F)c2)s1 (single isomer, unassigned) [Example E53, 1-ethyl-3-[5-[(3-fluorophenyl)methyl]-1,3,4-thiadiazol-2-yl]-1-(3,3,3-trifluoro-2-hydroxy-2-methyl-propyl)urea]",3390 nM
4,C[C@@H](O)CN(C)C(=O)Nc1nnc(Cc2cc(F)cc(F)c2)s1 [Example E15],3980 nM
5,CN(CC(C)(C)O)C(=O)Nc1nnc(Cc2cc(Cl)cc(Cl)c2)s1 [Example E44],162 nM
6,CN(CC1CCCO1)C(=O)Nc1nnc(Cc2cc(F)cc(F)c2)s1 (stereo not drawn) [Example E26],1260 nM
7,CCN(C[C@H](C)O)C(=O)Nc1nnc(Cc2cc(F)ccc2F)s1 [Example E12],2000 nM
8,CCN(C[C@H](C)O)C(=O)Nc1nnc(Cc2cccc(C)c2)s1 [Example E21],7940 nM
9,"CN(CC(C)(O)C(F)(F)F)C(=O)Nc1nnc(Cc2cccc(F)c2)s1 (single isomer, unassigned) [Example E50, 3-[5-[(3-fluorophenyl)methyl]-1,3,4-thiadiazol-2-yl]-1-methyl-1-(3,3,3-trifluoro-2-hydroxy-2-methyl-propyl)urea]",295 nM
10,CCN(C[C@H](C)O)C(=O)Nc1nnc(Cc2cc(F)cc(Cl)c2)s1 [Example E24],100 nM
11,CC1(C(=O)Nc2nnc(Cc3cc(F)cc(F)c3)s2)CCOC1 (stereo not drawn) [Example E08],2000 nM
12,"CN(CC(C)(O)C(F)(F)F)C(=O)Nc1nnc(Cc2cccc(F)c2)s1 (single isomer, unassigned) [Example E51, 3-[5-[(3-fluorophenyl)methyl]-1,3,4-thiadiazol-2-yl]-1-methyl-1-(3,3,3-trifluoro-2-hydroxy-2-methyl-propyl)urea]",10000 nM
13,CCN(C[C@@H](O)C(F)(F)F)C(=O)Nc1nnc(Cc2cccc(F)c2)s1 [Example E36],200 nM
14,O=C(Nc1nnc(Cc2cc(F)cc(F)c2)s1)N1CCC[C@@H]1CO [Example E16],2000 nM
15,CN(CC(C)(C)O)C(=O)Nc1nnc(Cc2cc(F)cc(F)c2)s1 [Example E20],200 nM
16,CC(C)C(=O)Nc1nnc(Cc2cc(F)ccc2F)s1 [Example E05],2510 nM
17,CN(CC1(O)CC1)C(=O)Nc1nnc(Cc2cc(F)cc(F)c2)s1 [Example E31],1260 nM
18,CCN(C[C@@H](O)C(F)(F)F)C(=O)Nc1nnc(Cc2cc(C)cc(F)c2)s1 [Example E43],69.2 nM
19,CC(C)C(=O)Nc1nnc(Cc2ccc(F)c(F)c2)s1 [Example E06],1580 nM
